Reference: the NIST ThermoML archive (doi:10.1016/j.fluid.2013.10.011)
Numbers after ± are expanded uncertainties.

Conditions: Crystal; visual observation

- Normal melting temperature: 99.50 ± 1.6 °C
Compound: O=C(O)C[C@H](O)C(=O)O [l-hydroxysuccinic acid]
